According to US20150239831A1, “INHIBITORS OF CENTRAL NERVOUS SYSTEM VASOACTIVE INHIBITORY PEPTIDE RECEPTOR 2” (The Trustees Of Columbia University In The City Of New York, priority 2012, published 2015):

Columns and labels:
Type in all cases: cell-based
Design in all cases: expressed in transfected cells; host or cells: HEK293 cells transfected with VIPR2 in pCDNA3.1 (as described)
VIPR2 [1] = molecular target: T1, VIPR2 (Homo sapiens, UniProt P41587); assay: Inhibition of VIP-induced cAMP elevation (% Activity cAMP); conditions: Batch 2
T1 sequence (P41587 24-438): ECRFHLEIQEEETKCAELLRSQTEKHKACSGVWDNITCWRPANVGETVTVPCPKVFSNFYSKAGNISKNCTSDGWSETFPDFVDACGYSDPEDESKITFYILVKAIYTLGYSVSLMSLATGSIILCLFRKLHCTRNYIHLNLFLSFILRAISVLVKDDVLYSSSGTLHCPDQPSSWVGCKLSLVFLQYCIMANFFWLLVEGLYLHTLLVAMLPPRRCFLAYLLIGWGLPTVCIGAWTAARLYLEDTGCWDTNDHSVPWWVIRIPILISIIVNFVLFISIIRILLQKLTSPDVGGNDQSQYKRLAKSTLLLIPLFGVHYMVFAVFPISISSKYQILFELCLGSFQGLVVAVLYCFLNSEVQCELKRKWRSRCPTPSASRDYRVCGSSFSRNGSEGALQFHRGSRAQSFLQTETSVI
Excerpt: (§1) In a further non-limiting embodiment of the invention, the ability of a compound to inhibit VIPR2 and thereby […] a VIP-induced increase in cAMP may be measured using a Homogeneous Time-Resolved Fluorescence (“HTRF® assay; Cisbio Bioassays) as used in Chu et al., 2010, Molecular Pharmacol. 7795-101. In a method as used in Chu et al., 2010, Molecular Pharmacol. 7795-101, HEK293 cells may be transfected with nucleic acid encoding VIPR2, for example human VIPR2 (“hVIPR2”), for example comprised in a vector such as pCDNA3.1 vector. Successful transformants may then be selected, for example using 800 μg/ml G418. Clonal stable cell lines may then be generated by limited dilution to single cells and then may be clonally expanded and tested for VIP -dependent cAMP response. For the cAMP assay, about 3000-15,000 cells (in about 4-25 μl) may be placed in a well of an assay plate. The next day, inhibitor or test inhibitor and VIP may be added in a volume about 1-2 percent of the initial volume. Assay plates may then be returned to a cell incubator for 30 min before addition of a one-half volume of cAMP conjugate and, relative to the amount of cAMP conjugate, an equal volume of anti-cAMP conjugate (Cisbio). After at least 1 h of room-temperature incubation, HTRF signal may be read, for example using Viewlux or EnVision (PerkinElmer Life and Analytical Sciences, Waltham, Mass.). The ratio of […] at 665 nm and 620 nm times 10,000 may be calculated and plotted.
(§2) A series of compounds were prepared using a synthetic method analogous to that set forth in Scheme 1, above, and then tested for their ability to inhibit VIP-induced cAMP elevation and β-arrestin recruitment.
(§3) A series of compounds were prepared using a synthetic method analogous to that set forth in Scheme 1, above, and then tested for their ability to inhibit VIP-induced cAMP elevation and β-arrestin recruitment, as described herein (Discoverx Corporation, Fremont, Calif., US). Compound activities were also tested in a BRET-based assay, as described herein. The results are shown below in Tables 1-4, above.

VIPR2 [2] = molecular target: T1, VIPR2; assay: % Activity: inhibition of VIP-induced cAMP elevation and β-arrestin recruitment (Table 2)
Excerpt: as §1
(§4) In a further non-limiting embodiment of the invention, the ability of a compound to inhibit VIPR2 GPCR activity may be tested, for example, using the PathHunter® eXpress β-Arrestin GPCR system (Discoverx Corporation, Fremont, Calif., US), as used by Chu et al., 2010, Molecular Pharmacol. 7795-101. In this assay, β-Arrestin is fused to the “Enzyme Acceptor” (“EA”), an N-terminal deletion mutant of β-gal, and the GPCR of interest is fused to a smaller (42 amino acids), weakly complementing portion of the β-gal enzyme (termed “ProLink™”). In cells that stably express these fusion proteins, the interaction of β-Arrestin and the GPCR following ligand stimulation forces the complementation of the two β-gal fragments resulting in the formation of a functional enzyme that converts substrate to detectable signal. In the absence of an interaction between the GPCR and β-Arrestin, the enzyme activity is low due to the low affinity of the two enzyme fragments. For example, a nucleic acid encoding VIPR2, for example hVIPR2, may be cloned into the ProLink vector (DiscoveRx) for GPCR-ProLink fusion protein production. Parental HEK293 cells that stably express β-arrestin2-β-gal-EA fusion protein (DiscoveRx) may be detached and transiently transfected with the VIPR2-containing vector using Fugene6 transfection reagent in suspension mode. Transfected cells in assay medium may be plated into test plates, for example at 15,000 cells/25 μl/well. After overnight incubation, 500 nl of an inhibitor or test inhibitor may be introduced into the test plate followed by 2 h incubation at 37° C., 5% CO2. Flash detection reagents may be added at 12.5 μl/well. After 5 min to 1 h of room-temperature incubation, the cell plates may be read on CLIPR (PerkinElmer Life and Analytical Sciences)or Acquest (Molecular Devices, Sunnyvale, Calif.) for luminescence signal.
as §3

VIPR2 [3] = molecular target: T1, VIPR2; assay: Inhibition of VIP-induced β-arrestin recruitment (% Activity Arrestin); conditions: Batch 2
Excerpt: as §4, §2, §3

| SMILES | inhibition at 0.5 µM (VIPR2 [1]) | inhibition at 1 µM (VIPR2 [1]) | inhibition at 5 µM (VIPR2 [1]) | % Activity (VIPR2 [2]) | inhibition at 0.5 µM (VIPR2 [3]) | inhibition at 1 µM (VIPR2 [3]) | inhibition at 5 µM (VIPR2 [3]) |
| --- | --- | --- | --- | --- | --- | --- | --- |
| O=C(NCc1ccccc1)[C@@H](Cc1ccccc1)C[C@H](O)CNS(=O)(=O)c1ccc([N+](=O)[O-])cc1 [Compound B3B] | -1% | 1.5% | 4.9% | 6.05% | -0.3% | -4.1% | 7.2% |
| O=C(NC1CCCCCC1)[C@H](Cc1ccccc1)C[C@H](O)CNS(=O)(=O)c1ccc([N+](=O)[O-])cc1 [Compound B5A] | 1.7% | 5.6% | 12.9% | 5.25% | -19.2% | -5.4% | -2.4% |
| O=C(NC1CCCCCC1)[C@@H](Cc1ccccc1)C[C@H](O)CNS(=O)(=O)c1ccc([N+](=O)[O-])cc1 [Compound B5B] | 15.5% | 10.6% | 14.3% | 10.55% | -4% | 3.6% | 6.8% |
| O=C(NN1CCCCC1)[C@H](Cc1ccccc1)C[C@H](O)CNS(=O)(=O)c1ccc([N+](=O)[O-])cc1 [Compound B6A] | 6.3% | 7.1% | 4.4% | 5.45% | -6.4% | 4.4% | 6.5% |
| O=C(NN1CCCCC1)[C@@H](Cc1ccccc1)C[C@H](O)CNS(=O)(=O)c1ccc([N+](=O)[O-])cc1 [Compound B6B] | 9.2% | 12.3% | 6% | 5.35% | -0.9% | 3.3% | 4.7% |
| CCCCNC(=O)[C@H](Cc1ccccc1)C[C@H](O)CNS(=O)(=O)c1ccc([N+](=O)[O-])cc1 [Compound B7A] | 0.9% | 5.1% | 5.3% | 9.55% | -5.6% | 1.9% | 13.8% |
| CCCCNC(=O)[C@@H](Cc1ccccc1)C[C@H](O)CNS(=O)(=O)c1ccc([N+](=O)[O-])cc1 [Compound B7B] | -1.5% | 0.6% | 6.2% | 13.45% | 26.8% | 20.4% | 20.7% |
| CC1CCC(NC(=O)[C@H](Cc2ccccc2)C[C@H](O)CNS(=O)(=O)c2ccc([N+](=O)[O-])cc2)CC1 (some centres unmarked) [Compound B8A] | -5% | -2.5% | -2.8% | −1.2% | 13.4% | -1.3% | 0.4% |
| CC1CCC(NC(=O)[C@@H](Cc2ccccc2)C[C@H](O)CNS(=O)(=O)c2ccc([N+](=O)[O-])cc2)CC1 (some centres unmarked) [Compound B8B] | -0.7% | 9.5% | 5.1% | 2.15% | 5.7% | -0.4% | -0.8% |
| O=C([C@H](Cc1ccccc1)C[C@H](O)CNS(=O)(=O)c1ccc([N+](=O)[O-])cc1)N1CCOCC1 [Compound B9A] | -3.8% | -1.6% | 2.4% | 0.6% | -4.3% | 8.9% | -1.2% |
| O=C([C@@H](Cc1ccccc1)C[C@H](O)CNS(=O)(=O)c1ccc([N+](=O)[O-])cc1)N1CCOCC1 [Compound B9B] | -5.8% | 10.4% | 3% | 1.65% | 7% | -13% | 0.3% |
| C[C@H](CC(C)(C)C)NC(=O)[C@H](Cc1ccccc1)C[C@H](O)CNS(=O)(=O)c1ccc([N+](=O)[O-])cc1 [Compound B10A] | -7.9% | 4.4% | -0.1% | −5.2% | 23.3% | 3% | -10.3% |
| C[C@H](CC(C)(C)C)NC(=O)[C@@H](Cc1ccccc1)C[C@H](O)CNS(=O)(=O)c1ccc([N+](=O)[O-])cc1 [Compound B10B] | 6.5% | 19.6% | 7.4% | 13.8000% | 36.8% | 27.9% | 20.2% |
| NC(=O)[C@H](Cc1ccccc1)C[C@H](O)CNS(=O)(=O)c1ccc([N+](=O)[O-])cc1 [Compound B12A] | 6.7% | 3.6% | 2.1% | −10.45% | -6.5% | -16.6% | -23% |
| NC(=O)[C@@H](Cc1ccccc1)C[C@H](O)CNS(=O)(=O)c1ccc([N+](=O)[O-])cc1 [Compound B12B] | 14.6% | 12.6% | 9.7% | 8.35% | 3.5% | -9.8% | 7% |
| O=C(NC1CCCc2ccccc21)[C@H](Cc1ccccc1)C[C@H](O)CNS(=O)(=O)c1ccc([N+](=O)[O-])cc1 (some centres unmarked) [Compound B13A] | 8.8% | 12.4% | 17.5% | 13.85% | 3.3% | 7.4% | 10.2% |
| O=C(NC1CCCc2ccccc21)[C@@H](Cc1ccccc1)C[C@H](O)CNS(=O)(=O)c1ccc([N+](=O)[O-])cc1 (some centres unmarked) [Compound B13B] | 5.1% | 6.6% | 17.4% | 9.0000% | 4.8% | 6.9% | 0.6% |
